Laboratory results published in the supplement of paper PMC11061612.

Key:
[1] = test system: CAL-148 (Breast Carcinoma); test: Bliss excess, mean over the matrix (fraction); higher = more synergy
Procedure, shortened: (§1)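 After 24 hours at 37°C and 5% CO2 in 1536-well plates, cells in DMEM/F12 or RPMI plus 10% FBS received two-drug dose matrices for 72 hours. Viability came from CellTiter-Glo 2.0 luminescence and was scaled as inhibition, anchored at 0 by vehicle wells and at 1 by blank wells. Combination Emax is taken as the second-highest inhibition in the matrix, and Bliss excess as the observed combination effect less EA + EB − EA·EB, with EA and EB the single-agent effects.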

[2] = test system: DEL (T-Cell Non-Hodgkin's Lymphoma); test: as above
Procedure, shortened: as §1

[3] = test system: EC-GI-10 (Esophageal Squamous Cell Carcinoma); test: as above
Procedure, shortened: as §1

[4] = test system: HO-1-N-1 (Oral Cavity Carcinoma); test: as above
Procedure, shortened: as §1

[5] = test system: KYSE-520 (Esophageal Squamous Cell Carcinoma); test: as above
Procedure, shortened: as §1

[6] = test system: TE-9 (Esophageal Squamous Cell Carcinoma); test: as above
Procedure, shortened: as §1

[7] = test system: B-CPAP (Thyroid Gland Carcinoma); test: combination Emax (second highest fraction inhibited in the dose matrix, 72 h); higher = more inhibition; extreme values may be limits of the assay
Procedure, shortened: as §1

[8] = test system: CaR-1 (Colorectal Carcinoma); test: as above
Procedure, shortened: as §1

[9] = test system: Daoy (Other Solid Carcinomas); test: as above
Procedure, shortened: as §1

[10] = test system: HCC-78 (Lung Adenocarcinoma); test: as above
Procedure, shortened: as §1

[11] = test system: HO-1-N-1 (Oral Cavity Carcinoma); test: as above
Procedure, shortened: as §1

KELLY (Neuroblastoma) = test: as above
Procedure, shortened: as §1

[12] = test system: KP-1N (Pancreatic Carcinoma); test: as above
Procedure, shortened: as §1

[13] = test system: KURAMOCHI (Ovarian Carcinoma); test: as above
Procedure, shortened: as §1

[14] = test system: LNCaP-Clone-FGC (Prostate Carcinoma); test: as above
Procedure, shortened: as §1

[15] = test system: MDA-MB-361 (Breast Carcinoma); test: as above
Procedure, shortened: as §1

[16] = test system: NCI-H2085 (Non-Small Cell Lung Carcinoma); test: as above
Procedure, shortened: as §1

[17] = test system: NCI-H82 (Small Cell Lung Carcinoma); test: as above
Procedure, shortened: as §1

[18] = test system: RO82-W-1 (Thyroid Gland Carcinoma); test: as above
Procedure, shortened: as §1

[19] = test system: SK-ES-1 (Ewing's Sarcoma); test: as above
Procedure, shortened: as §1
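Wherever Bliss excess, mean over the matrix is given: after 72 h of two-drug dosing.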

| Structure (SMILES) | Bliss excess [1] | Bliss excess [2] | Bliss excess [3] | Bliss excess [4] | Bliss excess [5] | Bliss excess [6] | combination Emax [7] | combination Emax [8] | combination Emax [9] | combination Emax [10] | combination Emax [11] | combination Emax (KELLY (Neuroblastoma)) | combination Emax [12] | combination Emax [13] | combination Emax [14] | combination Emax [15] | combination Emax [16] | combination Emax [17] | combination Emax [18] | combination Emax [19] |
| --- | --- | --- | --- | --- | --- | --- | --- | --- | --- | --- | --- | --- | --- | --- | --- | --- | --- | --- | --- | --- |
| C[C@@H]1COCCN1c1cc(C2([S@](C)(=N)=O)CC2)nc(-c2ccnc3[nH]ccc23)n1 [AZD6738] + O=C(c1cc(Cc2n[nH]c(=O)c3ccccc23)ccc1F)N1CCN(C(=O)C2CC2)CC1 [Olaparib] (first compound max 10 µM, 7x7, partner max 10 µM) | 0.0123 | 0.0399 | -0.0147 | -0.0196 | -0.0402 | 0.0403 | 0.498 | 0.441 | 0.867 | 0.638 | 0.839 | 0.897 | 0.425 | 0.549 | 0.73 | 0.836 | 0.43 | 0.921 | 0.353 | 0.933 |
| Cc1cc2ncnn2cc1Nc1ncc2c(n1)n(C1CCOCC1)c(=O)n2C [AZD7648] + C=CCn1c(=O)c2cnc(Nc3ccc(N4CCN(C)CC4)cc3)nc2n1-c1cccc(C(C)(C)O)n1 [AZD1775] (first compound max 10 µM, partner max 1 µM) | 0.0051 | 0.023 | -0.0049 | 0.0444 | 0.0058 | 0.0148 | 0.479 | 0.551 | 0.869 | 0.432 | 0.532 | 0.993 | 0.349 | 0.664 | 0.775 | 0.824 | 0.512 | 0.853 | 0.46 | 0.946 |
| Cc1cc2ncnn2cc1Nc1ncc2c(n1)n(C1CCOCC1)c(=O)n2C [AZD7648] + CCN(CCO)CCCOc1ccc2c(Nc3cc(CC(=O)Nc4cccc(F)c4)[nH]n3)ncnc2c1 [AZD2811] (first compound max 10 µM, 7x7, partner max 1 µM) | -0.0213 | 0.0547 | 0.0846 | 0.0478 | 0.0138 | -0.0002 | 0.283 | 0.472 | 0.445 | 0.342 | 0.826 | 0.692 | 0.134 | 0.238 | 0.535 | 0.61 | 0.717 | 0.595 | 0.358 | 0.964 |
| Cc1cc2ncnn2cc1Nc1ncc2c(n1)n(C1CCOCC1)c(=O)n2C [AZD7648] + CN(C)CCCOc1ccc(-c2ccc3ncc4c(c3c2)n(C2CCOCC2)c(=O)n4C)cn1 [AZD0156] (first compound max 10 µM, 7x7, partner max 1 µM) | 0.0102 | 0.0956 | 0.0001 | 0.0046 | -0.0068 | 0.009 | 0.286 | 0.266 | 0.313 | 0.263 | 0.3 | 0.878 | 0.188 | 0.192 | 0.546 | 0.565 | 0.234 | 0.293 | 0.394 | 0.503 |
| Cc1cc2ncnn2cc1Nc1ncc2c(n1)n(C1CCOCC1)c(=O)n2C [AZD7648] + C[C@@H]1COCCN1C2=NC(=NC(=C2)C3(CC3)[S@](=N)(=O)C)C4=C5C=CNC5=NC=C4 [AZD6738] (first compound max 10 µM, 7x7, partner max 10 µM) | 0.0532 | 0.0052 | -0.0064 | 0.0001 | 0.0356 | 0.0252 | 0.439 | 0.649 | 0.784 | 0.635 | 0.706 | 0.955 | 0.252 | 0.567 | 0.703 | 0.884 | 0.608 | 0.899 | 0.478 | 0.816 |
| Cc1cc2ncnn2cc1Nc1ncc2c(n1)n(C1CCOCC1)c(=O)n2C [AZD7648] + O=C(c1cc(Cc2n[nH]c(=O)c3ccccc23)ccc1F)N1CCN(C(=O)C2CC2)CC1 [Olaparib] (first compound max 10 µM, 7x7, partner max 10 µM) | -0.0545 | 0.0174 | -0.0478 | 0.0099 | -0.0138 | -0.0264 | 0.265 | 0.111 | 0.357 | 0.242 | 0.324 | 0.362 | 0.257 | 0.16 | 0.533 | 0.406 | 0.036 | 0.333 | 0.251 | 0.923 |
| NC1(C(=O)N[C@@H](CCO)c2ccc(Cl)cc2)CCN(c2ncnc3[nH]ccc23)CC1 [Capivasertib] + CC(=O)c1c(C)c2cnc(Nc3ccc(N4CCNCC4)cn3)nc2n(C2CCCC2)c1=O [Palbociclib] (first compound max 10 µM, 7x7, partner max 10 µM) | -0.0215 | 0.0706 | -0.0056 | 0.026 | -0.0342 | -0.0271 | 0.523 | 0.436 | 0.397 | 0.344 | 0.635 | 0.522 | 0.451 | 0.29 | 0.945 | 0.546 | 0.295 | 0.836 | 0.218 | 0.655 |
| NC1(C(=O)N[C@@H](CCO)c2ccc(Cl)cc2)CCN(c2ncnc3[nH]ccc23)CC1 [Capivasertib] + CC(C)n1c(=O)n(C)c2cnc3cc(F)c(-c4ccc(OCCCN5CCCCC5)nc4)cc3c21 [AZD1390] (first compound max 10 µM, 7x7, partner max 0.3 µM) | -0.0509 | 0.0336 | -0.0418 | 0.0055 | -0.0364 | -0.0431 | 0.261 | 0.365 | 0.33 | 0.259 | 0.435 | 0.256 | 0.254 | 0.294 | 0.956 | 0.44 | 0.258 | 0.912 | 0.244 | 0.448 |
| NC1(C(=O)N[C@@H](CCO)c2ccc(Cl)cc2)CCN(c2ncnc3[nH]ccc23)CC1 [Capivasertib] + CCN(CCO)CCCOc1ccc2c(Nc3cc(CC(=O)Nc4cccc(F)c4)[nH]n3)ncnc2c1 [AZD2811] (first compound max 10 µM, 7x7, partner max 1 µM) | -0.0142 | -0.0743 | 0.06 | -0.046 | -0.0495 | -0.0124 | 0.394 | 0.501 | 0.501 | 0.349 | 0.833 | 0.68 | 0.288 | 0.332 | 0.994 | 0.718 | 0.436 | 0.925 | 0.215 | 0.974 |
| NC1(C(=O)N[C@@H](CCO)c2ccc(Cl)cc2)CCN(c2ncnc3[nH]ccc23)CC1 [Capivasertib] + COc1nnc2ccc(N3CCC(c4ccc(OCCN5CCN(C)C(=O)[C@H]5C)cc4)CC3)nn12 [AZD5153] (first compound max 10 µM, 7x7, partner max 1 µM) | 0.0504 | -0.0363 | 0.0434 | 0.0214 | -0.0509 | 0.0567 | 0.723 | 0.648 | 0.676 | 0.389 | 0.887 | 0.336 | 0.621 | 0.776 | 0.993 | 0.718 | 0.6 | 0.885 | 0.362 | 0.789 |
| NC1(C(=O)N[C@@H](CCO)c2ccc(Cl)cc2)CCN(c2ncnc3[nH]ccc23)CC1 [Capivasertib] + C[C@@H]1COCCN1C2=NC(=NC(=C2)C3(CC3)[S@](=N)(=O)C)C4=C5C=CNC5=NC=C4 [AZD6738] (first compound max 10 µM, 7x7, partner max 10 µM) | 0.0222 | 0.0172 | -0.0804 | -0.0027 | -0.0371 | -0.0415 | 0.719 | 0.601 | 0.901 | 0.721 | 0.869 | 0.962 | 0.323 | 0.535 | 0.989 | 0.78 | 0.504 | 0.967 | 0.215 | 0.876 |
| NC1(C(=O)N[C@@H](CCO)c2ccc(Cl)cc2)CCN(c2ncnc3[nH]ccc23)CC1 [Capivasertib] + Cn1cnc2c(F)c(Nc3ccc(Br)cc3Cl)c(C(=O)NOCCO)cc21 [Selumetinib] (first compound max 10 µM, 7x7, partner max 10 µM) | 0.0597 | 0.054 | 0.0744 | 0.105 | -0.042 | -0.0011 | 0.499 | 0.564 | 0.472 | 0.295 | 0.848 | 0.44 | 0.393 | 0.444 | 0.969 | 0.493 | 0.427 | 0.903 | 0.277 | 0.429 |
| Cc1nc(Nc2ncc(C(=O)Nc3c(C)cccc3Cl)s2)cc(N2CCN(CCO)CC2)n1 [Dasatinib] + CC(=O)Nc1cccc(-n2c(=O)n(C3CC3)c(=O)c3c(Nc4ccc(I)cc4F)n(C)c(=O)c(C)c32)c1 [Trametinib] (first compound max 2 µM, 7x7, partner max 1 µM) | -0.0252 | 0.0076 | -0.0871 | 0.0676 | -0.0902 | -0.0104 | 0.79 | 0.57 | 0.41 | 0.347 | 0.939 | 0.556 | 0.478 | 0.937 | 0.15 | 0.229 | 0.82 | 0.203 | 0.436 | 0.24 |
